Biological target: T1, type VI-S porcine pancreatic lipase (Sus scrofa, UniProt P00591)
T1 construct: purchased Sigma type VI-S (catalogue number not given)
T1 sequence (P00591 1-450): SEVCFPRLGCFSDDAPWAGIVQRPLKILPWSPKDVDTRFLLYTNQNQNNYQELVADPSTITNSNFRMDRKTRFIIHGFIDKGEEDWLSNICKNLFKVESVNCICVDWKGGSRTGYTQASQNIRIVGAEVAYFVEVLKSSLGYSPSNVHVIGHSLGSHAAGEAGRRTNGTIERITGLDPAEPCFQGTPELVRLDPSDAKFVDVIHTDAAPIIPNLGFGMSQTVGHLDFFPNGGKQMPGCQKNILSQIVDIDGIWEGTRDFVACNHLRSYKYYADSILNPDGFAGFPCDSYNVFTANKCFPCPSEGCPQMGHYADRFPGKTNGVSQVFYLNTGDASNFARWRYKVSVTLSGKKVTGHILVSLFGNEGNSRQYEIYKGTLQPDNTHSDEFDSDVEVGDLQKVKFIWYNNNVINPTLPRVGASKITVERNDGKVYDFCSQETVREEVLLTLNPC
Test: Pancreatic lipase assay (pH-stat titration, triolein substrate)
Format: biochemical
Parameters: Ymax: unit not given here
Conditions: for k / Ymax: 7.0 nM lipase, 700 nM inhibitor, pH 8.0; for k: k fitted for the 12.5 min after inhibitor addition, Y=Ymax*(1-exp(-k*X)); for Ymax: Ymax of the fit Y=Ymax*(1-exp(-k*X)); for inhibition at 0.7 µM: 12.5 min
Protocol: The use of a pancreatic lipase assay has been described in the literature (Hadvary, P. et al. Biochem. J. (1988) 256: 357-361; Hadvary, P. et al. Biochem. J. (1991) 266:2021-2027). Pancreatic lipase activity was measured using a 718 Stat Titrino (Brinkmann) programmed to maintain a pH of 8.0 using 0.1 N NaOH. The substrate mixture (pH 8) contained 1 mM taurochenodeoxycholate (Sigma), 9 mM taurodeoxycholate (Sigma), 0.1 mM cholesterol (Sigma), 1 mM phosphatidylcholine (Sigma), 1.5% BSA, 2 mM Tris base, 100 mM NaCl, 10 mM CaCl2, and 3% triolein (Sigma). The mixture (5 mL) was emulsified via sonication at room temperature, and added to the titration vessel with rapid stirring. The Stat Titrino was turned on and lipase (7.0 nM type VI-S porcine pancreatic lipase (Sigma) dissolved in PBS) was added to the vessel. After 10 min, inhibitor (700 nM dissolved in 100% DMSO) was added and the reaction continued for an additional 12.5 min. The k values were determined for the 12.5 min after the addition of the inhibitor using a one phase exponential association equation, Y=Ymax*(1−exp(−k*X)), k values for lipase alone were 0.0004±0.0001 sec. The k values for compounds disclosed herein are >0.0004±0.0001 sec.

k	Ymax	inhibition at 0.7 µM [%]	Compound
0.779 10-3.s-1	–	–	2-Hexadecyloxy-5-methyl-4-oxo-4H-thieno[2,3-d][1,3]oxazine-6-carboxylic acid benzyl ester [Entry 7]
1.288 10-3.s-1	0.161	–	CCCCCCCCOc1nc2sc(C(C)C)cc2c(=O)o1 [Entry 76, 6-Isopropyl-2-octyloxy-thieno[2,3-d][1,3]oxazin-4-one]
–	–	83	CCCCCCCCc1cc2c(=O)oc(OCCCCCC)nc2s1 [Entry 94]
–	–	12.4	CCCCCCCc1cc2c(=O)oc(OC(C)CCCCCC)nc2s1 (stereo not drawn) [Entry 91, 6-Heptyl-2-(1-methylheptyloxy)thieno[2,3-d][1,3]oxazin-4-one]
–	–	74.2	CCCCCCCCCCCCc1cc2c(=O)oc(OCCCCCCCC)nc2s1 [Entry 88, 6-Dodecyl-2-octyloxy-thieno[2,3-d][1,3]oxazin-4-one]
0.013 10-3.s-1	–	–	CCCCCCCCN(CCCCCCCC)c1nc2sc(C(=O)OCc3ccccc3)c(C)c2c(=O)o1 [Entry 60, 2-Dioctylamino-5-methyl-4-oxo-4H-thieno[2,3-d][1,3]oxazine-6-carboxylic acid benzyl ester]
1.102 10-3.s-1	0.185	–	CCCCCCCCNc1nc2sc(C(=O)NCCOC)c(C)c2c(=O)o1 [Entry 72, 5-Methyl-2-octylamino-4-oxo-4H-thieno(2,3-d)(1,3)oxazine-6-carboxylic acid (2-methoxy-ethyl)-amide]
1.999 10-3.s-1	0.140	–	CCCCCCCCNc1nc2sc(C(=O)NCCOc3ccccc3)c(C)c2c(=O)o1 [Entry 70, 5-Methyl-2-octylamino-4-oxo-4H-thieno(2,3-d)(1,3)oxazine-6-carboxylic acid (2-phenoxy-ethyl)-amide]
–	–	36.9	CCCCCCCCOc1nc2sc(C(C)CCCC(C)(C)OC)cc2c(=O)o1 (stereo not drawn) [Entry 83, 6-(5-Methoxy-1,5-dimethyl-hexyl)-2-octyloxy-thieno[2,3-d][1,3]oxazin-4-one]
0.770 10-3.s-1	–	–	CCCCCCCCNc1nc2sc(C(=O)NC(CCCC)CCCC)c(C)c2c(=O)o1 [Entry 45, 5-Methyl-2-octylamino-4-oxo-4H-thieno[2,3-d][1,3]oxazine-6-carboxylic acid (1-butyl-pentyl)-amide]
2.577 10-3.s-1	–	–	CCCCCCCCNc1nc2sc(C(=O)NCCCCCC)c(C)c2c(=O)o1 [Entry 27, 5-Methyl-2-octylamino-4-oxo-4H-thieno[2,3-d][1,3]oxazine-6-carboxylic acid hexylamide]
–	–	-14.1	CCCCCCC(C)Oc1nc2sc(C(=O)OCc3ccccc3)c(C)c2c(=O)o1 (stereo not drawn) [Entry 89, 5-Methyl-2-(1-methylheptyloxy)-4-oxo-4H-thieno[2,3-d][1,3]oxazine-6-carboxylic acid benzyl ester]
0.086 10-3.s-1	14.657	–	CCCCCCC(C)Nc1nc2sc(C(=O)OCc3ccccc3)c(C)c2c(=O)o1 (stereo not drawn) [Entry 71, 5-Methyl-2-(1-methylheptylamino)-4-oxo-4H-thieno[2,3-d][1,3]oxazine-6-carboxylic acid benzyl ester]
0.719 10-3.s-1	–	–	CCCCCCCCNc1nc2sc(C(=O)NCCc3cccnc3)c(C)c2c(=O)o1 [Entry 50, 5-Methyl-2-octylamino-4-oxo-4H-thieno[2,3-d][1,3]oxazine-6-carboxylic acid (2-pyridin-3-yl-ethyl)-amide]
1.257 10-3.s-1	–	–	CCCCCCCCNc1nc2sc(C(=O)NCc3ccco3)c(C)c2c(=O)o1 [Entry 52, 5-Methyl-2-octylamino-4-oxo-4H-thieno[2,3-d][1,3]oxazine-6-carboxylic acid (furan-2-ylmethyl)-amide]
0.981 10-3.s-1	–	–	CCCCCCCCOC(=O)c1sc2nc(Nc3ccc(Oc4ccccc4)cc3)oc(=O)c2c1C [Entry 19, 5-Methyl-4-oxo-2-(4-phenoxy-phenylamino)-4H-thieno[2,3-d][1,3]oxazine-6-carboxylic acid octyl ester]
5.825 10-3.s-1	0.020	78.9	CCCCCCCCOc1nc2sc(CCCCCCC)cc2c(=O)o1 [Entry 68, 6-Heptyl-2-octyloxy-thieno[2,3-d][1,3]oxazin-4-one]

k	Ymax	inhibition at 0.7 µM [%]	Compound
0.146 10-3.s-1	0.616	–	CCCCCCCCNc1nc2sc(C(=O)N(CCCC)CCCC)c(C)c2c(=O)o1 [Entry 36, 5-Methyl-2-octylamino-4-oxo-4H-thieno[2,3-d][1,3]oxazine-6-carboxylic acid dibutylamide]
–	–	15	CCCCCCCCCCc1cc2c(=O)oc(OC(C)CCCCCC)nc2s1 (stereo not drawn) [Entry 90, 6-Decyl-2-(1-methylheptyloxy)thieno[2,3-d][1,3]oxazin-4-one]
1.079 10-3.s-1	–	–	CCCCCCCCNc1nc2sc(C(=O)NCc3ccccc3)c(C)c2c(=O)o1 [Entry 21, 5-Methyl-2-octylamino-4-oxo-4H-thieno[2,3-d][1,3]oxazine-6-carboxylic acid benzylamide]
0.794 10-3.s-1	1.594	–	CCCCCCCCNc1nc2sc(C(=O)NCCCOC)c(C)c2c(=O)o1 [Entry 73, 5-Methyl-2-octylamino-4-oxo-4H-thieno(2,3-d)(1,3)oxazine-6-carboxylic acid (3-methoxy-propyl)-amide]
0.022 10-3.s-1	–	–	CCCCCCCCNc1nc2sc(C(=O)N(C)Cc3cccc(C)n3)c(C)c2c(=O)o1 [Entry 49, 5-Methyl-2-octylamino-4-oxo-4H-thieno[2,3-d][1,3]oxazine-6-carboxylic acid methyl-(6-methyl-pyridin-2-ylmethyl)-amide]
0.062 10-3.s-1	–	–	CCCCCCCCNc1nc2sc(C(=O)NCCCN(C)C)c(C)c2c(=O)o1 [Entry 46]
0.922 10-3.s-1	–	–	CCCCCCCCNc1nc2sc(C(=O)OCCCCCCCC)c(C)c2c(=O)o1 [Entry 20, 5-Methyl-2-octylamino-4-oxo-4H-thieno[2,3-d][1,3]oxazine-6-carboxylic acid octyl ester]
1.548 10-3.s-1	–	–	CCCCCCCCNC(=O)c1sc2nc(OCCCCCCCC)oc(=O)c2c1C [Entry 15, 5-Methyl-2-octyloxy-4-oxo-4H-thieno[2,3-d][1,3]oxazine-6-carboxylic acid octylamide]
1.349 10-3.s-1	–	–	CCCCCCCOC(=O)c1sc2nc(OCCCCCCC)oc(=O)c2c1C [Entry 10, 5-Methyl-2-heptyloxy-4-oxo-4H-thieno[2,3-][1,3]oxazine-6-carboxylic acid heptyl ester]
0.114 10-3.s-1	–	–	CCCCCCCCNc1nc2sc(C(=O)OCc3ccccc3)c(C)c2c(=O)s1 [Entry 56, 5-Methyl-2-octylamino-4-oxo-4H-thieno[2,3-d][1,3]thiazine-6-carboxylic acid benzyl ester]
7.74 10-3.s-1	–	–	CCCCCCCNc1nc2sc(C(=O)OCc3ccccc3)c(C)c2c(=O)o1 [Entry 17, 2-Heptylamino-5-methyl-4-oxo-4H-thieno[2,3-d][1,3]oxazine-6-carboxylic acid benzyl ester]
0.176 10-3.s-1	3.917	–	CCCCCCCCNc1nc2sc(C(=O)N3CCN(CC(=O)NC(C)C)CC3)c(C)c2c(=O)o1 [Entry 64, N-Isopropyl-2-(4-(5-methyl-2-octylamino-4-oxo-4H-thieno(2,3-d)(1,3)oxazine-6-carbonyl)-piperazin-1-yl)-acetamide]
0.998 10-3.s-1	–	–	CCCCCCCCCCNC(=O)c1sc2nc(NCCCCCCCC)oc(=O)c2c1C [Entry 28, 5-Methyl-2-octylamino-4-oxo-4H-thieno[2,3-d][1,3]oxazine-6-carboxylic acid decylamide]
0.537 10-3.s-1	–	–	CCCCCCCCNc1nc2sc(C(=O)N(C)C)c(C)c2c(=O)o1 [Entry 22, 5-Methyl-2-octylamino-4-oxo-4H-thieno[2,3-d][1,3]oxazine-6-carboxylic acid dimethylamide]
0.459 10-3.s-1	–	–	CCCCCCCNC(=O)N(CCCCCCC)c1nc2sc(C(=O)OCc3ccccc3)c(C)c2c(=O)o1 [Entry 14, 2-(1,3-Diheptyl-ureido)-5-methyl-4-oxo-4H-thieno[2,3-d][1,3]oxazine-6-carboxylic acid benzyl ester]
0.547 10-3.s-1	–	–	CCCCCCCCNc1nc2sc(C(=O)NCC)c(C)c2c(=O)o1 [Entry 33, 5-Methyl-2-octylamino-4-oxo-4H-thieno[2,3-d][1,3]oxazine-6-carboxylic acid ethylamide]
